Results reported in US7560468B2, “Substituted 1,4,8-triazaspiro[4,5]decan-2-one compounds” (Gruenenthal GmbH, priority 2004, dated 2009).

How the values were obtained:
[1] = system: batrachotoxin (BTX) binding site of the sodium channel; assay: Affinity to the batrachotoxin (BTX) binding site of the sodium channel; details: rat cerebrocortex synaptosomes, [3H]-batrachotoxinin A20 α-benzoate 10 nM; test concentration not given
5-HT transporter = target: T1, 5-HT transporter (Rattus norvegicus, UniProt P31652); assay: Inhibition of 5-HT uptake in synaptosomes; format: biochemical
T1 construct: from tissue; host or cells: rat brain synaptosomes (marrow/medulla and pons), P2 fraction
T1 sequence (P31652 whole entry): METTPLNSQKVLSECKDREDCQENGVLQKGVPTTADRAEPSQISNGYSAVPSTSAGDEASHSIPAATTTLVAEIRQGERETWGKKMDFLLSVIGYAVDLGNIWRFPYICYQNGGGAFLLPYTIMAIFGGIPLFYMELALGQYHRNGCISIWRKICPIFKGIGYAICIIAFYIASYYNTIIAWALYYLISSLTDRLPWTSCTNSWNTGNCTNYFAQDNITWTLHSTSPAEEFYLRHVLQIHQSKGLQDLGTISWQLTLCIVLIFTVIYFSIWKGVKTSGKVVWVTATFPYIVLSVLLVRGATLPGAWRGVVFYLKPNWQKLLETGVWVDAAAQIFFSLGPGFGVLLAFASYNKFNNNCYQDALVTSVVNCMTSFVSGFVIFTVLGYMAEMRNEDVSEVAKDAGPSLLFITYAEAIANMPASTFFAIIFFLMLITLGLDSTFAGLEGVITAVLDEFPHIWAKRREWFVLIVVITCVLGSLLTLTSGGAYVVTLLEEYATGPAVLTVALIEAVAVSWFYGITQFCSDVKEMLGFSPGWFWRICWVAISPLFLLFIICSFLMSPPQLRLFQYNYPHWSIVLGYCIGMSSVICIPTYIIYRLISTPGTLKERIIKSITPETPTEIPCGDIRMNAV

NA transporter = assay: Inhibition of noradrenalin uptake in synaptosomes; format: biochemical
human CB2 receptor = human CB2 receptor (Homo sapiens, UniProt P34972); assay: Affinity to the cannabinoid receptor CB2, displacement of [3H]-CP 55,940; details: for Inhibition CB2 10 μM, % inhibition: membranes of HEK 293EBNA cells with human CB2 receptor; for inhibition at 10 µM: read-out: Inhibition CB2 10 μM, % inhibition
Sequence of human CB2 receptor (P34972 whole entry): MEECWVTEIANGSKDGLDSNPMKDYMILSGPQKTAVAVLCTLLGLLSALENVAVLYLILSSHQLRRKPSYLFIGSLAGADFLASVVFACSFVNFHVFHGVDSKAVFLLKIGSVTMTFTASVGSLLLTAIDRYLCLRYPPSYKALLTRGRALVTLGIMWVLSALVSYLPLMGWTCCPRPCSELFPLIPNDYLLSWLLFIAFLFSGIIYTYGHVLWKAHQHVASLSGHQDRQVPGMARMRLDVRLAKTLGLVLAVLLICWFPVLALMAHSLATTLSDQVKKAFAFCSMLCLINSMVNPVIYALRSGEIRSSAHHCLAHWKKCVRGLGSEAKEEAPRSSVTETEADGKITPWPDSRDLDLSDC
Protocol: The radioligand used was tritium-labeled 5-(1,1-dimethylheptyl)-2-(5-hydroxypropyl)cyclohexyl)-1-alpha,2-beta,5-alpha)-phenol (^[3]H—CP 55,940 with 103.4 of Ci/mmol, 1 m Ci/mL). Determination was carried out in a test buffer comprising 50 mM of Tris-HCl, 2.5 mm of EDTA, 5 mm of MgCl2 and 1.0 mg/mL of fatty acid-free BSA. The test substances were in each case dissolved in DMSO.
The affinity of the compounds of the invention to the CB2 receptor is determined by their ability to displace ^[3]H—CP from 55,940 of CB2 receptors in membranes of HEK 293 EBNA cells. For this purpose 8 μg of membranes (20 mL of a solution of membranes in a concentration of 400 g/ml) are incubated in wells of a microtiter plate with a 0.33 nM of solution of [3]H-CP 55,949 (120 of Ci/mmol) in a total volume of test buffer of 200 μL for 90 minutes at 30° C.
Subsequently, either the test substances or WIN 55,212-2 for determination the non-specific binding are placed, dissolved in each case in dimethyl sulphoxide, in the wells so that in each case a concentration of the relevant substances of 10 μM is obtained.
Incubation is continued for a further 40 minutes at 30° C. dc. […] The filters are washed nine times with 0.5 mL of ice-cold washing buffer (50 nM of Tris-HCl, 5 mM of MgCl2, 2.5 mm of EDTA, 2% of BSA, pH 7.4), air-dried, placed in scintillation liquid, and the radioactivity is determined with the aid of a scintillation counter.
The percentage displacement of the radio-active ligand ^[3]H—CP 55,940 from its binding to the CB2 receptor is indicated as percentage inhibition of the specific binding. In order to determine Ki the IC50 inhibition concentrations are calculated based on of the percentage displacement achieved by the compounds of the general formula I to be tested at various concentrations causing a 50 percent displacement of the radioactive ligands.

| Structure (SMILES) | BTX Inhibition [1] | Uptake_5-HT, rat, 1 μM, % inhibition (5-HT transporter) [%] | Uptake (NA), rat, 10 μM, % inhibition (NA transporter) [%] | Inhibition CB2 10 μM, % inhibition (human CB2 receptor) [%] | inhibition at 10 µM (human CB2 receptor) [%] | inhibition at 1 µM (5-HT transporter; read-out: Uptake_5-HT, rat, 1 μM, % inhibition) [%] |
| --- | --- | --- | --- | --- | --- | --- |
| CCOC(=O)CN1C(=O)C(Cc2ccccc2)NC12CCN(S(=O)(=O)c1ccc(OC)cc1)CC2 (centres unmarked) [Example 50, Ethyl[3-benzyl-8-(4-methoxy-benzolsulfonyl)-2-oxo-1,4,8-triazaspiro[4,5]dec-1-yl]-acetate] | 32 | 79 | 38 | 52 |  |  |
| C=CCN1C(=O)C(CCSC)NC12CCN(S(=O)(=O)c1ccccc1S(C)(=O)=O)CC2 (centres unmarked) [Example 54, 1-Allyl-8-(2-methansulfonylbenzolsulfonyl)-3-(2-methylsulfanylethyl)-1,4,8-triazaspiro[4,5]decan-2-one] |  | 30 | 46 | 56 |  |  |
| O=C1C(Cc2ccccc2)NC2(CCN(C(=S)NCC3CCCCC3)CC2)N1Cc1ccccc1F (centres unmarked) [Example 171, 3-Benzyl-1-(2-fluorobenzyl)-2-oxo-1,4,8-triazaspiro[4,5]decan-8-thiocarboxylic acid cyclohexylmethylamide] | 86 |  | 34 |  | 41 |  |
| CSCCC1NC2(CCN(C(=S)NCc3ccc(F)cc3)CC2)N(Cc2ccc(F)cc2)C1=O (centres unmarked) [Example 182, 1-(4-Fluorobenzyl)-3-(2-methylsulfanylethyl)-2-oxo-1,4,8-triazaspiro[4,5]decan-8-thiocarboxylic acid 4-fluorobenzylamide] | 69 |  |  |  | 64 | 30 |
| O=C1C(Cc2ccccc2)NC2(CCN(C(=S)Nc3c(Cl)cccc3Cl)CC2)N1Cc1ccccc1F (centres unmarked) [Example 187, 3-Benzyl-1-(2-fluorobenzyl)-2-oxo-1,4,8-triazaspiro[4,5]decan-8-thiocarboxylic acid (2,6-dichlorobenzol)amide] | 86 | 54 | 39 | 84 |  |  |
| O=C1C(Cc2ccccc2)NC2(CCN(C(=S)Nc3cc(C(F)(F)F)ccc3Cl)CC2)N1Cc1ccccc1F (centres unmarked) [Example 188, 3-Benzyl-1-(2-fluorobenzyl)-2-oxo-1,4,8-triazaspiro[4,5]decan-8-thiocarboxylic acid (2-chloro-5-trifluoromethylbenzol)amide] | 77 | 59 |  | 49 |  |  |
| CCOc1ccc(NC(=O)N2CCC3(CC2)NC(CCSC)C(=O)N3Cc2ccc3ccccc3c2)cc1 (centres unmarked) [Example 231, 3-(2-Methylsulfanylethyl)-1-naphthalin-2-ylmethyl-2-oxo-1,4,8-triazaspiro[4,5]decan-8-carboxylic acid (4-ethoxy-benzol)amide] | 79 | 59 |  | 49 |  |  |
